This is an account of results in patent publication US11639350B2, “Heteroaryldihydropyrimidine derivatives and methods of treating hepatitis B infections” (Janssen Pharmaceutica NV, priority 2018, dated 2023).

Molecules are shown by their SMILES. Like-named read-outs stand apart in the source and are kept apart here. A value given as a limit tells only on which side of the number the result lay.

The subject of one series is HBV. Nature of the series: HBV inhibitory activity: HBV DNA in the culture medium of HepG2.2.15 cells by q-PCR. The class given is cell-based. The method, boiled down: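 HepG2.2.15 cells in 2% FBS medium, 40,000 per well, treated 6 days with compound (medium refreshed once), eight 3-fold dilutions from 10 μM top. HBV DNA extracted from culture medium and quantified by q-PCR; EC50 averaged over repeats. Cytotoxicity run in parallel at 5,000 cells per well, top 100 μM, giving CC50.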

The nature of series [1]: Cytotoxicity determination in HepG2.2.15 cells (CCK-8). The class given is cell-based. Conditions: human, 6 days of compound treatment, CCK-8, highest concentration 100 μM. The method, boiled down: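 HepG2.2.15 cells seeded at 5,000 cells/well in 2% FBS medium, incubated overnight at 37° C., then treated 6 days with compounds (8 points, 3-fold dilutions, top 100 μM), medium refreshed once midway. CCK-8 added for 2.5 h; A450 read against 630 nm reference; CC50 calculated, averaged over repeats.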

Setting [2] is: Hepatitis B virus, HepG2.2.15, 144 h, HepG2.2.15 cells, 6 days of compound treatment, HBV DNA in culture medium by q-PCR, highest concentration 10 μM, read-out: EC50.

For `CNS(=O)(=O)[C@H]1CC[C@@H](C2=C(C(=O)OC)C(c3cccc(F)c3Cl)N=C(c3nccs3)N2)CC1` (single isomer, unassigned) [Compound 259C, (cis)-methyl 4-(2-chloro-3-fluorophenyl)-6-(4-(N-methylsulfamoyl)cyclohexyl)-2-(thiazol-2-yl)-1,4-dihydropyrimidine-5-carboxylate], the concentration giving a half-maximal response (EC50) in the series with HBV (setting [2]) came out at 36 nM. Besides, the midpoint of cytotoxicity in series [1], the CC50 at 6 days, lay at 12700 nM.

For `COC(=O)C1=C(C23CC(NS(C)(=O)=O)(C2)C3)NC(c2nccs2)=NC1c1ccc(F)c(F)c1Cl` (centres unmarked) [Compound 204A, Methyl 4-(2-chloro-3,4-difluorophenyl)-6-(3-(methyl-sulfonamido)bicyclo[0.1.1.1]pentan-1-yl)-2-(thiazol-2-yl)-1,4-dihydropyrimidine-5-carboxylate], the EC50 in the series with HBV (setting [2]) was found to be 7 nM. In addition, it took 23800 nM to reach half-maximal cytotoxicity in series [1] (CC50 at 6 days).

`COC(=O)C1=C([C@H]2CC[C@H](C(=O)OC)CC2)NC(c2nc(C)cs2)=NC1c1ccc(F)cc1Br` (single isomer, unassigned) [Compound 239X, (trans)-Methyl 4-(2-bromo-4-fluorophenyl)-6-(4-(methoxycarbonyl)cyclohexyl)-2-(4-methylthiazol-2-yl)-1,4-dihydropyrimidine-5-carboxylate]: the EC50 with HBV (setting [2]) turned out to be 149 nM. The CC50 at 6 days in series [1] worked out at 14800 nM.

Consider `CCOC(=O)C1=C([C@H]2CC[C@H](C(=O)O)CO2)NC(c2nccs2)=NC1c1ccc(F)cc1Cl` (single isomer, unassigned) [Compound 363E, (trans)-6-(−6-(2-Chloro-4-fluorophenyl)-5-(ethoxycarbonyl)-2-(thiazol-2-yl)-3,6-dihydropyrimidin-4-yl)tetrahydro-2H-pyran-3-carboxylic Acid], for which, in the series with HBV (HepG2.2.15 cells, 6 days of compound treatment, HBV DNA in culture medium by q-PCR, highest concentration 10 μM, read-out: EC50), the EC50 came to 296 nM. The compound further came in with a CC50 at 6 days in series [1] greater than 100000 nM.

Consider `COC(=O)C1=C(C2CCN(C(C)=O)CC2)NC(c2nccs2)=NC1c1ccc(F)cc1Cl` (single isomer, unassigned) [Compound 2B, Methyl 6-(1-acetylpiperidin-4-yl)-4-(2-chloro-4-fluorophenyl)-2-(thiazol-2-yl)-1,4-dihydropyrimidine-5-carboxylate], for which, in the series on HBV (setting [2]), the EC50 was 338 nM. The compound also yielded a CC50 at 6 days in series [1] greater than 100000 nM.

For `COC(=O)C1=C(C2COC2)NC(c2nccs2)=NC1c1ccc(F)cc1Cl` (racemic) [Compound 217, Methyl 4-(2-chloro-4-fluorophenyl)-6-(oxetan-3-yl)-2-(thiazol-2-yl)-1,4-dihydropyrimidine-5-carboxylate], the EC50 with HBV (setting [2]) came out at 511 nM. In series [1], this compound had a half-maximal cytotoxic concentration (CC50) at 6 days of 29600 nM.

As for `COC(=O)C1=C([C@H]2CC[C@H](C(=O)O)CC2)NC(c2nccs2)=NC1c1ccc(F)c(F)c1Cl` (relative stereo) [Compound 289A, (trans)-4-(6-(2-chloro-3,4-difluorophenyl)-5-(methoxycarbonyl)-2-(thiazol-2-yl)-3,6-dihydropyrimidin-4-yl)cyclohexanecarboxylic Acid], in the series with HBV (setting [2]), the EC50 was determined as 15 nM. Besides, it took 24200 nM to reach half-maximal cytotoxicity in series [1] (CC50 at 6 days).

As for `COC(=O)C1=C(C2CCN(C(=O)C3(C(=O)OC)CC3)CC2)NC(c2nccs2)=NC1c1ccc(F)cc1Cl` (centres unmarked) [Compound 108, Methyl-4-(2-chloro-4-fluorophenyl)-6-(1-(1-(methoxycarbonyl)-cyclopropane-1-carbonyl)piperidin-4-yl)-2-(thiazol-2-yl)-1,4-dihydropyrimidine-5-carboxylate], the EC50 with HBV (setting [2]) came out at 77 nM. For the same compound, in series [1], the CC50 at 6 days is 26900 nM.

In the case of `COC(=O)C1=C([C@H]2CCC[C@@H](C(=O)OC)C2)NC(c2nccs2)=NC1c1cccc(F)c1Cl` (single isomer, unassigned) [Compound 24Q, cis-Methyl 4-(2-chloro-3-fluorophenyl)-6-(3-(methoxycarbonyl)-cyclohexyl)-2-(thiazol-2-yl)-1,4-dihydropyrimidine-5-carboxylate], in the series on HBV (setting [2]), the EC50 was determined as 964 nM. For the same compound, the CC50 at 6 days in series [1] was 3520 nM.

`COC(=O)C1=C([C@H]2CC[C@H](C(=O)O)CC2)NC(c2nccs2)=NC1c1cccc(F)c1Cl` (stereo partly drawn) [Compound 17, trans-4-(6-(2-Chloro-3-fluorophenyl)-5-(methoxycarbonyl)-2-(thiazol-2-yl)-3,6-dihydropyrimidin-4-yl)cyclohexanecarboxylic Acid]: the EC50 in the series with HBV (setting [2]) was 300 nM. The compound also came in with a CC50 at 6 days in series [1] of 93800 nM.

Take `COC(=O)C1=C(C23CC(C(=O)O)(C2)C3)NC(c2nccs2)=NC1c1ccc(F)cc1Cl` (centres unmarked) [Compound 258B, 3-(6-(2-Chloro-4-fluorophenyl)-5-(methoxycarbonyl)-2-(thiazol-2-yl)-3,6-dihydropyrimidin-4-yl)bicyclo[1.1.1]pentane-1-carboxylic Acid]: the EC50 in the series with HBV (setting [2]) was found to be 401 nM. In series [1], the CC50 at 6 days came to 27400 nM.

As to `CCOC(=O)C1=C(C2CCN(S(=O)(=O)CC3CC(C(=O)O)C3)CC2)NC(c2nccs2)=NC1c1ccc(F)c(F)c1Cl` (centres unmarked) [Compound 480B, 3-(((4-(6-(2-Chloro-3,4-difluorophenyl)-5-(ethoxycarbonyl)-2-(thiazol-2-yl)-3,6-dihydropyrimidin-4-yl)piperidin-1-yl)sulfonyl)methyl)cyclobutanecarboxylic Acid], in the series on HBV (setting [2]), the EC50 was found to be 22 nM. The compound also yielded a CC50 at 6 days in series [1] of 9900 nM.

With `CCCS(=O)(=O)N[C@H]1CC[C@H](C2=C(C(=O)OC)C(c3ccc(F)cc3Cl)N=C(c3nccs3)N2)CC1` (single isomer, unassigned) [Compound 186A, (trans)-Methyl 4-(2-chloro-4-fluorophenyl)-6-(4-(propyl-sulfonamido)cyclohexyl)-2-(thiazol-2-yl)-1,4-dihydropyrimidine-5-carboxylate], the EC50 with HBV (setting [2]) was found to be 97 nM. This compound displayed a CC50 at 6 days in series [1] of 83100 nM.

Regarding `COC(=O)C1=C(C2CCN(S(=O)(=O)[C@H]3C[C@H](C(=O)O)C3)CC2)NC(c2nccs2)=NC1c1ccc(F)cc1Br` (stereo partly drawn) [Compound 241B, (trans)-3-((4-(−6-(2-Bromo-4-fluorophenyl)-5-(methoxycarbonyl)-2-(thiazol-2-yl)-3,6-dihydropyrimidin-4-yl)piperidin-1-yl)sulfonyl)cyclobutanecarboxylic Acid], the EC50 in the series with HBV (setting [2]) was found to be 120 nM. In series [1], this compound registered a CC50 at 6 days of 60000 nM.

On to `COC(=O)C1=C([C@@H]2CCN(S(=O)(=O)CC(F)(F)F)C2)NC(c2nccs2)=NC1c1ccc(F)cc1Cl` (stereo partly drawn) [Compound 364, Methyl 4-(2-chloro-4-fluorophenyl)-2-(thiazol-2-yl)-6-((R)-1-((2,2,2-trifluoroethyl)sulfonyl)pyrrolidin-3-yl)-1,4-dihydropyrimidine-5-carboxylate], for which the EC50 with HBV (setting [2]) was 208 nM. In series [1], this compound came in with a CC50 at 6 days greater than 100000 nM.

Regarding `COCCS(=O)(=O)N1CCC(C2=C(C(=O)OC)C(c3ccc(F)cc3Cl)N=C(c3nccs3)N2)CC1` (centres unmarked) [Compound 215, Methyl 4-(2-chloro-4-fluorophenyl)-6-(1-((2-methoxyethyl)sulfonyl)piperidin-4-yl)-2-(thiazol-2-yl)-1,4-dihydropyrimidine-5-carboxylate], in the series with HBV (setting [2]), the EC50 amounted to 51 nM. For the same compound, in series [1], half-maximal cytotoxicity (CC50 at 6 days) was put at 52700 nM.

Regarding `COC(=O)C1=C(C2CCN(S(=O)(=O)CCC(N)=O)CC2)NC(c2nccs2)=NC1c1ccc(F)cc1Cl` (centres unmarked) [Compound 457, Methyl 6-(1-((3-amino-3-oxopropyl)sulfonyl)piperidin-4-yl)-4-(2-chloro-4-fluorophenyl)-2-(thiazol-2-yl)-1,4-dihydropyrimidine-5-carboxylate], the EC50 with HBV (setting [2]) is 54 nM. The same compound returned a CC50 at 6 days in series [1] of 63400 nM.

In the series with HBV (Hepatitis B virus, HepG2.2.15, 144 h), `COC(=O)C1=C(C2CCN(S(=O)(=O)c3cnn(C[C@@H](C)O)c3)CC2)NC(c2nccs2)=NC1c1ccc(F)cc1Cl` (stereo partly drawn) [Compound 360C, methyl 4-(2-chloro-4-fluorophenyl)-6-(1-((1-((R)-2-hydroxypropyl)-1H-pyrazol-4-yl)sulfonyl)piperidin-4-yl)-2-(thiazol-2-yl)-1,4-dihydropyrimidine-5-carboxylate] displayed an EC50 of 17 nM. For the same compound, the CC50 at 6 days in series [1] stood at 17000 nM.

Take `COC(=O)C1=C([C@H]2CC[C@H](C(=O)OC)CC2)NC(c2nccs2)=NC1c1cccc(F)c1Cl` (single isomer, unassigned) [Compound 16X, Methyl 4-(2-chloro-3-fluorophenyl)-6-(trans-4-(methoxycarbonyl)-cyclohexyl)-2-(thiazol-2-yl)-1,4-dihydropyrimidine-5-carboxylate]: the EC50 in the series with HBV (setting [2]) is 49 nM. Also, the CC50 at 6 days in series [1] came out at 29300 nM.

`COC(=O)C1=C([C@H]2CC[C@H](C(=O)O)CC2)NC(c2nccs2)=NC1c1ccc(F)c(F)c1C` (stereo partly drawn) [Compound 227A, (trans)-4-(−6-(3,4-Difluoro-2-methylphenyl)-5-(methoxycarbonyl)-2-(thiazol-2-yl)-3,6-dihydropyrimidin-4-yl)cyclohexanecarboxylic Acid]: the EC50 in the series with HBV (setting [2]) came out at 96 nM. This compound also showed a CC50 at 6 days in series [1] of 37600 nM.

For `COC(=O)C1=C(C2CCN(S(=O)(=O)c3nccs3)CC2)NC(c2nccs2)=NC1c1ccc(F)cc1Cl` (centres unmarked) [Compound 200A, Methyl 4-(2-chloro-4-fluorophenyl)-2-(thiazol-2-yl)-6-(1-(thiazol-2-ylsulfonyl)piperidin-4-yl)-1,4-dihydropyrimidine-5-carboxylate], the EC50 in the series with HBV (setting [2]) amounted to 102 nM. In series [1], this compound displayed a CC50 at 6 days greater than 100000 nM.

`COC(=O)C1=C(C2CCC(N(C)C(C)=O)C2)NC(c2nccs2)=NC1c1cccc(F)c1Cl` (centres unmarked) [Compound 170, Methyl 4-(2-chloro-3-fluorophenyl)-6-(3-(N-methylacetamido)cyclopentyl)-2-(thiazol-2-yl)-1,4-dihydropyrimidine-5-carboxylate]: the EC50 with HBV (setting [2]) was found to be 533 nM. In series [1], this compound returned a CC50 at 6 days of 14900 nM.
